Experimental data: US20070155687A1, “Methods and compositions for altering cell function” (Alltech, Inc., priority 2005, published 2007)

Experiments:
Type in all cases: in vivo
[1] = tested on: Gadd45g1p (Growth arrest and DNA-damage inducible 45 gamma interacting protein); experiment: Brain gene expression: Gadd45g1p; conditions: mouse brain; diet 1 ppm Se, 100 days; * significant relative to Se-deficient animals
Description: (§1) Animal Care. Male C57BL/6J mice were housed singly and started on the experimental diets described below immediately after weaning (21 days of age). The mice were maintained in the Shared Aging Rodent Facility at the William S. Middleton Memorial Veterans Administration Medical Center (Madison, Wis.). Temperature and humidity were maintained at constant levels. Room light was controlled to provide 12-hr cycles of light and dark.
(§2) Experimental diets were created by Harlan Teklad (Madison, Wis.). Selenium content of the diets was determined by Covance Inc. (Madison, Wis.). Five (5) animals were included in each of the following treatment groups: a diet deficient in selenium (SD); a diet supplemented with selenomethionine (SM, obtained from Sigma, St. Louis, Mo.) such that the final selenium content of the diet was one (1) part per million; a diet supplemented with sodium selenite (SS, Sigma) such that the final concentration of selenium in this diet was one (1) part per million; or a diet supplemented with the yeast selenium SEL-PLEX (SP, Alltech, Lexington, Ky), such that the final concentration of selenium in this diet was one (1) part per million. SEL-PLEX. […]
(§3) Tissue sample preparation and microarray analysis. […] For intestinal expression studies, the intestine was flushed twice with saline solution and small intestine was measured and divided in three equal segments. […]

[2] = tested on: Nicastrin; experiment: Cerebral cortex gene expression: Nicastrin; conditions: mouse cerebral cortex; diet 1 ppm Se, 100 days; * significant relative to Se-deficient animals, P < 0.01
Description: as §1, §2, §3

[3] = tested on: Amyloid beta (A4) precursor-like protein (Aplp 1); experiment: Cerebral cortex gene expression: Aplp 1; conditions: mouse cerebral cortex; diet 1 ppm Se, 100 days; * significant relative to Se-deficient animals, P < 0.01
Description: as §1, §2, §3

[4] = tested on: Type 1 iodothyronine deiodinase; experiment: Intestinal gene expression: Type 1 iodothyronine deiodinase; conditions: mouse intestine; diet 1 ppm Se, 100 days; vs selenium deficient
Description: as §1, §2, §3

[5] = tested on: Amyloid beta (A4) precursor protein-binding, family A, member 1(Apba1); experiment: Cerebral cortex gene expression: Apba1; conditions: mouse cerebral cortex; diet 1 ppm Se, 100 days; * significant relative to Se-deficient animals, P < 0.01
Description: as §1, §2, §3

[6] = tested on: Complement component 1, r subcomponent, C1r; experiment: Cerebral cortex gene expression: C1r; conditions: mouse cerebral cortex; diet 1 ppm Se, 100 days; vs selenium deficient; * = significant, p<0.01
Description: as §1, §2, §3

[7] = tested on: Complement component 1, q subcomponent binding protein, C1qbp; experiment: Cerebral cortex gene expression: C1qbp; conditions: mouse cerebral cortex; diet 1 ppm Se, 100 days; vs selenium deficient; * = significant, p<0.01
Description: as §1, §2, §3

[8] = tested on: Gst zeta 1 (Gstz1); experiment: Brain gene expression: Gstz1; conditions: mouse brain; diet 1 ppm Se, 100 days; * significant relative to Se-deficient animals
Description: as §1, §2, §3

[9] = tested on: Cathepsin D; experiment: Cerebral cortex gene expression: Cathepsin D; conditions: mouse cerebral cortex; diet 1 ppm Se, 100 days; * downregulation significant relative to Se-deficient mice
Description: as §1, §2, §3

[10] = tested on: Presenilin 1; experiment: Cerebral cortex gene expression: Presenilin 1; conditions: mouse cerebral cortex; diet 1 ppm Se, 100 days; * significant relative to Se-deficient animals, P < 0.01
Description: as §1, §2, §3

[11] = tested on: Complement component 1, q subcomponent, alpha polypeptide, C1qa; experiment: Cerebral cortex gene expression: C1qa; conditions: mouse cerebral cortex; diet 1 ppm Se, 100 days; vs selenium deficient; * = significant, p<0.01
Description: as §1, §2, §3

[12] = tested on: Complement component 1, q subcomponent, beta polypeptide, C1qbp; experiment: Cerebral cortex gene expression: C1q beta polypeptide; conditions: mouse cerebral cortex; diet 1 ppm Se, 100 days; vs selenium deficient; * = significant, p<0.01
Description: as §1, §2, §3

[13] = tested on: Cathepsin O; experiment: Cerebral cortex gene expression: Cathepsin O; conditions: mouse cerebral cortex; diet 1 ppm Se, 100 days; * downregulation significant relative to Se-deficient mice
Description: as §1, §2, §3

[14] = tested on: Gst mu 7 (Gstm7); experiment: Brain gene expression: Gstm7; conditions: mouse brain; diet 1 ppm Se, 100 days; * significant relative to Se-deficient animals
Description: as §1, §2, §3

[15] = tested on: Cathepsin B; experiment: Cerebral cortex gene expression: Cathepsin B; conditions: mouse cerebral cortex; diet 1 ppm Se, 100 days; * downregulation significant relative to Se-deficient mice
Description: as §1, §2, §3

[16] = tested on: Junb; experiment: Cerebral cortex gene expression: Junb; conditions: mouse brain (neocortex); diet 1 ppm Se, 100 days; * significant relative to Se-deficient animals
Description: as §1, §2, §3

[17] = tested on: Gst pi 1 (Gstp1); experiment: Brain gene expression: Gstp1; conditions: mouse brain; diet 1 ppm Se, 100 days; * significant relative to Se-deficient animals
Description: as §1, §2, §3

[18] = tested on: Amyloid beta (A4) precursor protein-binding, family B, member 1 (Apbb1 or Fe65); experiment: Cerebral cortex gene expression: Apbb1/Fe65; conditions: mouse cerebral cortex; diet 1 ppm Se, 100 days; * significant relative to Se-deficient animals, P < 0.01
Description: as §1, §2, §3

[19] = tested on: Gadd45b; experiment: Brain gene expression: Gadd45b; conditions: mouse brain; diet 1 ppm Se, 100 days; * significant relative to Se-deficient animals
Description: as §1, §2, §3

[20] = tested on: Cathepsin Z; experiment: Cerebral cortex gene expression: Cathepsin Z; conditions: mouse cerebral cortex; diet 1 ppm Se, 100 days; * downregulation significant relative to Se-deficient mice
Description: as §1, §2, §3

[21] = tested on: Complement component 1, q subcomponent, gamma polypeptide, C1qg; experiment: Cerebral cortex gene expression: C1qg; conditions: mouse cerebral cortex; diet 1 ppm Se, 100 days; vs selenium deficient; * = significant, p<0.01
Description: as §1, §2, §3

SMILES: C[Se]CC[C@H](N)C(=O)O [SeM, selenomethionine]
- FC Gadd45g1p expression [1]: 1.02 fold
- FC Nicastrin expression [2]: 1.04 fold
- FC Aplp 1 expression [3]: 1.02 fold
- Type 1 iodothyronine deiodinase expression level, fold increase [4]: 2.0 fold
- FC Apba1 expression [5]: 1.08 fold
- FC C1r expression [6]: 1.04 fold
- FC C1qbp expression [7]: 1.12 fold
- FC Gstz1 expression [8]: −1.08 fold
- FC Cathepsin D expression [9]: 1.02 fold
- FC Presenilin 1 expression [10]: 1.02 fold
- FC C1qa expression [11]: −1.11 fold
- FC Complement component 1, q subcomponent, beta polypeptide expression [12]: −1.15 fold
- FC Cathepsin O expression [13]: −1.16 fold
- FC Gstm7 expression [14]: −1.05 fold
- FC Cathepsin B expression [15]: −1.03 fold
- FC Junb expression [16]: −1.38 fold
- FC Gstp1 expression [17]: −1.04 fold
- FC Apbb1 (Fe65) expression [18]: 1.02 fold
- FC Gadd45b expression [19]: −1.26 fold
- FC Cathepsin Z expression [20]: −1.13 fold
- FC C1qg expression [21]: 1.0 fold

SMILES: O=[Se](O)O [Sod-sel, sodium selenite]
- FC Gadd45g1p expression [1]: −1.12 fold
- FC Nicastrin expression [2]: −1.67* fold
- FC Aplp 1 expression [3]: −1.55* fold
- Type 1 iodothyronine deiodinase expression level, fold increase [4]: 2.8 fold
- FC Apba1 expression [5]: −1.41 fold
- FC C1r expression [6]: −1.29 fold
- FC C1qbp expression [7]: 1.11 fold
- FC Gstz1 expression [8]: −1.3 fold
- FC Cathepsin D expression [9]: −1.24* fold
- FC Presenilin 1 expression [10]: −1.11 fold
- FC C1qa expression [11]: −1.18 fold
- FC Complement component 1, q subcomponent, beta polypeptide expression [12]: −1.35 fold
- FC Cathepsin O expression [13]: −1.18 fold
- FC Gstm7 expression [14]: −1.25* fold
- FC Cathepsin B expression [15]: −1.13* fold
- FC Junb expression [16]: −1.59 fold
- FC Gstp1 expression [17]: 1.02 fold
- FC Apbb1 (Fe65) expression [18]: −1.32* fold
- FC Gadd45b expression [19]: −1.39* fold
- FC Cathepsin Z expression [20]: −1.30* fold
- FC C1qg expression [21]: −1.07 fold
